Test results published in ChEMBL document CHEMBL1133417, “N-[[1-(2-phenylethyl)pyrrolidin-2-yl]methyl]cyclohexanecarboxamides as selective 5-HT1A receptor agonists” (Bioorg Med Chem Lett, 2000).

Key:
[1] = target: T1, 5-hydroxytryptamine receptor 1A (Rattus norvegicus, UniProt P19327); test: Inhibitory concentration against binding of 5-hydroxytryptamine 1A receptor from striata of male Wistar rats by displacement of [3H]8-OH-DPAT
T1 sequence (P19327 whole entry): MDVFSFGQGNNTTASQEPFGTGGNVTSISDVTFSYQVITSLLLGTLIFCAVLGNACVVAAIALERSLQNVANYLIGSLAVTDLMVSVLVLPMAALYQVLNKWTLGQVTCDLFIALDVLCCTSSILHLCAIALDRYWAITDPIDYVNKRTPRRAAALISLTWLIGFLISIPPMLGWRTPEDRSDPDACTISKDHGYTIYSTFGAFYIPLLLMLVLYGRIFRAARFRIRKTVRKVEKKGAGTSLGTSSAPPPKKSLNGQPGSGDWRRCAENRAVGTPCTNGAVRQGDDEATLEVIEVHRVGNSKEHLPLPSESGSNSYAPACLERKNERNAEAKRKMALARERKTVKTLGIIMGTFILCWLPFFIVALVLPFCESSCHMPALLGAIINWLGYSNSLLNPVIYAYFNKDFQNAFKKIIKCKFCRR

[2] = target: T2, Serotonin 2 (5-HT2) receptor (Rattus norvegicus, UniProt P30994+P08909+P14842); test: Inhibitory concentration against 5-hydroxytryptamine 2 receptor from striata of male Wistar rats by displacement of [3H]-ketanserin; assay type: protein assay
D(2) dopamine receptor [3] = target: T3, D(2) dopamine receptor (Homo sapiens, UniProt P14416); test: Inhibitory concentration against binding of Dopamine receptor D2 by displacement of [3H]spiperone
T3 sequence (P14416 whole entry): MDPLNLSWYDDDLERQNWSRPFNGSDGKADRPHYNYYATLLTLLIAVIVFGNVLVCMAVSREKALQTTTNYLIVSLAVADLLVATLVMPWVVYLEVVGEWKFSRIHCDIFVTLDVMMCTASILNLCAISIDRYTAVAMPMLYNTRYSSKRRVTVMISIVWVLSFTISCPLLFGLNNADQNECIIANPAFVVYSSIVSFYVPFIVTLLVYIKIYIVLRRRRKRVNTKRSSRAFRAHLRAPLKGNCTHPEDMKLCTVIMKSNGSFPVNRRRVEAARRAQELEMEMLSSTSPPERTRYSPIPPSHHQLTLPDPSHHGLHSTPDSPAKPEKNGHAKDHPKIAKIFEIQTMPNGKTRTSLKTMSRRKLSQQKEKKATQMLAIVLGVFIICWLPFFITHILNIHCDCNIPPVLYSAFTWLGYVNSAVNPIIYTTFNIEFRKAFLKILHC

[4] = target: T1, 5-hydroxytryptamine receptor 1A; test: Displacement of [3H]8-OH-DPAT from rat striata 5-hydroxytryptamine 1A receptor
[5] = target: T2, Serotonin 2 (5-HT2) receptor; test: Binding affinity for 5-hydroxytryptamine 2 receptor from striata of male Wistar rats by displacement of [3H]ketanserin; assay type: protein assay
[6] = target: T2, Serotonin 2 (5-HT2) receptor; test: Inhibitory concentration against binding of 5-hydroxytryptamine 2 receptor from striata of male Wistar rats by displacement of [3H]-ketanserin; assay type: protein assay
D(2) dopamine receptor [7] = target: T3, D(2) dopamine receptor; test: Binding affinity for Dopamine receptor D2 by displacement of [3H]-spiperone

Row | SMILES | IC50 (D(2) dopamine receptor [3]) [µM] | Ki [4] [µM] | Ki [5] [nM l-1] | Ki (D(2) dopamine receptor [7]) [µM] | other results
1 | O=C(NC[C@H]1CCCN1CCc1ccccc1)c1ccccc1 | > 1 | – | – | – | IC50 [1]: > 1 µM; IC50 [2]: > 1000 nM l-1
2 | O=C(NC[C@@H]1CCCN1CCc1ccccc1)c1ccccc1 | > 1 | 0.0046 | 430 | – | –
3 | CSc1cccc(C(=O)NC[C@H]2CCCN2CCc2ccccc2)c1 | > 1 | 0.11 | – | – | IC50 [6]: > 1000 nM l-1
4 | COc1cc2c(c(C(=O)NC[C@@H]3CCCN3CCc3ccccc3)c1)OCC2 | – | 0.021 | 660 | 0.12 | –
5 | CSc1cc2c(c(C(=O)NC[C@H]3CCCN3CCc3ccccc3)c1)OCC2 | – | 0.1 | 430 | 0.0067 | –
6 | CCCCN1CCC[C@@H]1CNC(=O)c1cc(Cl)cc2c1OCCN2C | – | – | – | 0.63 | Ki ([5]; read-out: Ki): 0.086 µM
7 | CN1CCOc2c(C(=O)NC[C@H]3CCCN3CCc3ccccc3)cc(Cl)cc21 | – | – | – | – | IC50 [6]: > 1000 nM l-1
8 | CN1CCOc2c(C(=O)NC[C@@H]3CCCN3CCc3ccccc3)cc(Cl)cc21 | – | – | – | – | Ki ([5]; read-out: Ki): 0.28 µM
9 | CCCCN1CCC[C@H]1CNC(=O)c1cc(Cl)cc2c1OCCN2C | – | – | – | 0.012 | Ki ([5]; read-out: Ki): 0.3 µM
10 | CSc1cccc(C(=O)NC[C@@H]2CCCN2CCc2ccccc2)c1 | > 1 | 0.0043 | 160 | – | –
11 | COc1ccc(SC)cc1C(=O)NC[C@@H]1CCCN1CCc1ccccc1 | – | 0.024 | 170 | 0.46 | –
12 | O=C(NC[C@H]1CCCN1CCc1ccccc1)C1CCCCC1 | > 1 | 0.19 | – | – | IC50 [2]: > 1000 nM l-1
13 | O=C(NC[C@@H]1CCCN1CCc1ccccc1)C1CCCCC1 | > 1 | 0.00049 | 240 | – | –
14 | CCCN(CCC)C1CCc2cccc(O)c2C1 (stereo unspecified) [8-OH-DPAT] | – | – | – | – | IC50 [2]: > 1000 nM l-1
15 | O=C(c1ccc(F)cc1)C1CCN(CCn2c(=O)[nH]c3ccccc3c2=O)CC1 [KETANSERIN] | – | – | – | 0.24 | IC50 [1]: > 1 µM
